Measured values: US20260345621A1, “GABAA RECEPTOR MODULATORS AND USES THEREOF” (Engrail Therapeutics, Inc., priority 2022, published 2026)
Entries after “also recorded” stand apart in the source; their conditions may differ. Read-outs that look alike come from different tables or passages of the source.

Legend:
[1] = molecular target: human GABAA receptor α1/β3/γ2 (Homo sapiens, UniProt P14867+P18507); assay: SyncroPatch platform, PAM mode, GABAA α1/β3/γ2
[2] = Multiple ascending dose study, plasma pharmacokinetics; type: in vivo, human (healthy volunteers); details: for AUC(0-t) at 24 h / Cmax at 24 h / AUC tau / Cmax at 288 h / half-life: human, plasma, po
Protocol: A clinical study was developed to evaluate safety, tolerability, pharmacokinetics, and pharmacodynamics of Compound 1 at plasma steady-state in 40 healthy human volunteers. Compound 1 (provided as Compound 1 phosphate) was administered to participants as multiple ascending doses of 0.5 mg (N=6), 1.0 mg (N=6), 1.5 mg (N=6), 2.0 mg (N=6), or 5.0 mg (N=6) once daily (QD) for 12 days.
Blood samples were collected, and plasma concentrations were measured using a validated high performance liquid chromatography/liquid chromatography-mass spectrometry/mass spectrometry method. The PK parameters assessed included Cmax, Tmax, AUC from administration to the end of dosing (AUC0-t), AUC0-24, AUC0-inf, t1/2, terminal rate constant (λz), apparent total clearance of the drug from plasma (CL/F), and apparent volume of distribution during terminal phase after non-intravenous administration (Vz/F).
The plasma concentration data for Compound 1 were summarized by dose level and the planned sampling time points using descriptive statistics (n, SD, median, minimum, maximum, geometric mean, and coefficient of variance (CV %) for the geometric mean) for the PK Analysis Set.
Specifically, samples for PK analyses were taken on Day 1 and Day 12 pre-dose, 0.5, 1, 1.5, 3, 6, 8, 10, and 12 h post-dose, with additional samples taken on every dosing Day (24 hours after the previous day's dose) and 24, 72, 168, and 336 h after last dosing on Day 12. All individual Compound 1 concentrations were above the LLOQ of 0.0500 ng/mL at 0.5 h post-dose, except for 1 participant, for whom the concentration was above the LLOQ at 1 h post-dose.

[3] = participants receiving Compound 1
[4] = 0.5 mg oral QD, Day 1, 1440 min
[5] = 1.0 mg oral QD, Day 1, 1440 min
[6] = 1.5 mg oral QD, Day 1, 1440 min
[7] = 2.0 mg oral QD, Day 1, 1440 min

Chain of human GABAA receptor α1/β3/γ2 (P14867 28-456): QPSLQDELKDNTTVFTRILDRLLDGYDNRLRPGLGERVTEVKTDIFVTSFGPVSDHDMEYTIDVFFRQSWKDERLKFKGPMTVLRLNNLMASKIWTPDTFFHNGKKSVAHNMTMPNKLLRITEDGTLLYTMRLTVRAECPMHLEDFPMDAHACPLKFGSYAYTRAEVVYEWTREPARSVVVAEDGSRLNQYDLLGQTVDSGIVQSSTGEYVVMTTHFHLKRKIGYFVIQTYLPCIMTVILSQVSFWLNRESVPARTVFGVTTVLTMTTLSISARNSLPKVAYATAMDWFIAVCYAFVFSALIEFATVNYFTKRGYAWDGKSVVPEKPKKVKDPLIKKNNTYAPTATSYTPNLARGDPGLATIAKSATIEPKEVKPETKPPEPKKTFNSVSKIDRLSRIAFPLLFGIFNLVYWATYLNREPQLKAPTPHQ
Chain of human GABAA receptor α1/β3/γ2 (P18507 40-475): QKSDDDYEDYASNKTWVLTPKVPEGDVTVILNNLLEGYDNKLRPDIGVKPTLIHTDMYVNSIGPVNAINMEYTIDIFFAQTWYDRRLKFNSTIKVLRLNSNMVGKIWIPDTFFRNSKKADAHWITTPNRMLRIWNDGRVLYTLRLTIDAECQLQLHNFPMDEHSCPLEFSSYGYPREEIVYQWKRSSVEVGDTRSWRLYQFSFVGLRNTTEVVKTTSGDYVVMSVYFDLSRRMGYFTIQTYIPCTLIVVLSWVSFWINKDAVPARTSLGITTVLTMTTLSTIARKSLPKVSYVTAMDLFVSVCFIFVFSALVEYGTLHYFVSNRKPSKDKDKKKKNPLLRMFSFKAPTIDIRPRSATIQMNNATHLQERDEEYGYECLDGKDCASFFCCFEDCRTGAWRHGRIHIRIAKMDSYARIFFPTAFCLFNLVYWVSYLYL
Chain of human GABAA receptor α1/β3/γ2 (P28472 26-473 partner): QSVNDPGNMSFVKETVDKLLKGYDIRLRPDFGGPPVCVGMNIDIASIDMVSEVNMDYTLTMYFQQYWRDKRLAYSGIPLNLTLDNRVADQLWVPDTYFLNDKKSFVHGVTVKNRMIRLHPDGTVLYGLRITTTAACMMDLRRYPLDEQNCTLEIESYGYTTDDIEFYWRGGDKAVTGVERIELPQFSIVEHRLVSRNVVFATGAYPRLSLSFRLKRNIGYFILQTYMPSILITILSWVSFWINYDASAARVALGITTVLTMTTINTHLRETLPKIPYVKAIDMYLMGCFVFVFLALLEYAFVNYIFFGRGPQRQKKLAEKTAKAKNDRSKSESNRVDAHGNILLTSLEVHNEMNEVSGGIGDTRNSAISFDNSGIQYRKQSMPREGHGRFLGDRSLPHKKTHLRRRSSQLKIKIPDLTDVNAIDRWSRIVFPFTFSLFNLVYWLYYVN

Question: Which “Cl- flux / activity at α1 subtype” value [1] does the source give for `CC(C)(O)c1cnn2c(-c3ccc(F)c(-c4c(F)cccc4C#N)c3)cnc2n1` [Compound 1, 2′,6-difluoro-5′-(3-(2-hydroxypropan-2-yl)imidazo[1,2-b][1,2,4]triazin-7-yl)-[1,1′-biphenyl]-2-carbonitrile] here?
Answer: Its value is “blocking α1; also recorded: did not drive Cl-flux; also recorded: does not potentiate the α1 GABAA receptor subtype”.

Question: And the moderate somnolence (2.0 mg and 5.0 mg)?
Answer: Its moderate somnolence is “Two TEAEs of moderate somnolence”.

Question: And the moderate balance disorder (5.0 mg)?
Answer: Its moderate balance disorder is 1 TEAE of moderate balance disorder.

Question: What about the “concomitant medications or physical examination findings” value (0.5-5.0 mg oral QD 12 days) of the same compound?
Answer: The value was “No consistent differences”.

Question: What about the “mean QTcF increase” value (0.5-5.0 mg oral QD 12 days) of the same compound?
Answer: Its value is “No clinically relevant increase”.

Question: What about the “severe TEAEs or SAEs” value (0.5-5.0 mg oral QD 12 days) of the same compound?
Answer: The value was “No severe TEAEs or serious adverse events (SAEs) occurred”.

Question: What about the “suicidal ideation or behaviors (C-SSRS)” value (0.5-5.0 mg oral QD 12 days) of the same compound?
Answer: The value was “No positive responses”.

Question: And the “participants with TEAEs of moderate severity” value (5/40 participants)?
Answer: The value was 12.5%.

Question: What about the “participants with TEAEs of mild severity” value (34/40 participants) of the same compound?
Answer: Its value is 85.0%.

Question: What about the “number of TEAEs of moderate severity” value (in 5/40 participants) of the same compound?
Answer: The value was 6.

Question: What about the dizziness [3] of the same compound?
Answer: The dizziness was 20.0%.

Question: And the postural dizziness [3]?
Answer: The postural dizziness was 30.0%.

Question: What about the “incidence of somnolence versus placebo” value (pooled placebo) of the same compound?
Answer: Its value is “approximately twice as high as the placebo-treated participants”.

Question: What about the “AUC0-24 (mean)” value [2, 4] of the same compound?
Answer: Its value is 52.56 ng·h/mL.

Question: What about the “Cmax (mean)” value [2, 4] of the same compound?
Answer: Its value is 4.615 ng/mL.

Question: And the “AUCtau (mean)” value ([2]; 0.5 mg oral QD, Day 12)?
Answer: The value was 197.54 ng·h/mL.

Question: What about the “t1/2 (mean)” value ([2]; 0.5 mg oral QD, Day 12) of the same compound?
Answer: The value was 65.610 h.

Question: What about the “Cmax (mean)” value ([2]; 0.5 mg oral QD, Day 12, 17280 min) of the same compound?
Answer: Its value is 11.660 ng/mL.

Question: What about the “AUC0-24 (mean)” value [2, 5] of the same compound?
Answer: Its value is 117.81 ng·h/mL.

Question: What about the “Cmax (mean)” value [2, 5] of the same compound?
Answer: Its value is 8.497 ng/mL.

Question: And the “AUCtau (mean)” value ([2]; 1.0 mg oral QD, Day 12)?
Answer: Its value is 410.07 ng·h/mL.

Question: What about the “t1/2 (mean)” value ([2]; 1.0 mg oral QD, Day 12) of the same compound?
Answer: Its value is 60.876 h.

Question: What about the “Cmax (mean)” value ([2]; 1.0 mg oral QD, Day 12, 17280 min) of the same compound?
Answer: Its value is 23.333 ng/mL.

Question: And the “AUC0-24 (mean)” value [2, 6]?
Answer: The value was 216.99 ng·h/mL.

Question: What about the “Cmax (mean)” value [2, 6] of the same compound?
Answer: Its value is 18.833 ng/mL.

Question: What about the “AUCtau (mean)” value ([2]; 1.5 mg oral QD, Day 12) of the same compound?
Answer: Its value is 705.65 ng·h/mL.

Question: And the “t1/2 (mean)” value ([2]; 1.5 mg oral QD, Day 12)?
Answer: Its value is 50.526 h.

Question: What about the “AUC0-24 (mean)” value [2, 7] of the same compound?
Answer: The value was 243.73 ng·h/mL.

Question: And the “Cmax (mean)” value [2, 7]?
Answer: Its value is 19.633 ng/mL.

Question: And the “AUCtau (mean)” value ([2]; 2.0 mg oral QD, Day 12)?
Answer: The value was 873.17 ng·h/mL.

Question: What about the “t1/2 (mean)” value ([2]; 2.0 mg oral QD, Day 12) of the same compound?
Answer: The value was 61.167 h.

Question: What about the “Cmax (mean)” value ([2]; 2.0 mg oral QD, Day 12, 17280 min) of the same compound?
Answer: The value was 49.817 ng/mL.

Question: What about the “AUC0-24 (mean)” value ([2]; 5.0 mg oral QD, Day 1, 1440 min) of the same compound?
Answer: The value was 641.92 ng·h/mL.

Question: And the “t1/2 (mean)” value ([2]; 5.0 mg oral QD, Day 12)?
Answer: Its value is 38.695 h.

Question: What about the “trend of t1/2 or λz with increasing dose” value ([2]; 0.5-5.0 mg oral QD) of the same compound?
Answer: Its value is “no trend towards change in t1/2 or λz with increasing dose”.

Question: What about the “dose proportionality of exposure” value ([2]; Cmax and AUC, 0.5-5.0 mg oral QD) of the same compound?
Answer: The value was “generally increased dose- and concentration-proportionally; also recorded: Dose-proportional PK were confirmed over the investigated dose range”.

Question: And the “median time of the last quantifiable concentration” value ([2]; all cohorts, Day 1)?
Answer: Its value is “approximately 24 h”.

Question: And the “linearity of dose normalized Cmax and AUC0-24” value ([2]; arguable exception 1.5 mg)?
Answer: Its value is “consistent with linear kinetics”.

Question: And the AUC(0-t) at 24 h ([2]; 0.5 mg, 0.5 mg oral QD, Day 1, read-out: AUC0-24 (mean))?
Answer: The AUC(0-t) at 24 h was 53 ± 7 ng·h/mL.

Question: What about the AUC(0-t) at 24 h ([2]; 0.5 mg, 0.5 mg oral QD, Day 1, read-out: AUC0-24 (median)) of the same compound?
Answer: The AUC(0-t) at 24 h was 54.8 ng·h/mL.

Question: What about the Cmax at 24 h ([2]; 0.5 mg, 0.5 mg oral QD, Day 1, read-out: Cmax (mean)) of the same compound?
Answer: The Cmax at 24 h was 4.6 ± 2 ng/mL.

Question: What about the Cmax at 24 h ([2]; 0.5 mg, 0.5 mg oral QD, Day 1, read-out: Cmax (median)) of the same compound?
Answer: The Cmax at 24 h was 4.58 ng/mL.

Question: What about the AUC tau ([2]; 0.5 mg, 0.5 mg oral QD, Day 12, read-out: AUCtau (mean)) of the same compound?
Answer: Its AUC tau is 198 ± 51 ng·h/mL.

Question: What about the AUC tau ([2]; 0.5 mg, 0.5 mg oral QD, Day 12, read-out: AUCtau (median)) of the same compound?
Answer: Its AUC tau is 201 ng·h/mL.

Question: What about the Cmax at 288 h ([2]; 0.5 mg, 0.5 mg oral QD, Day 12, read-out: Cmax (mean)) of the same compound?
Answer: Its Cmax at 288 h is 11.7 ± 4 ng/mL.

Question: What about the Cmax at 288 h ([2]; 0.5 mg, 0.5 mg oral QD, Day 12, read-out: Cmax (median)) of the same compound?
Answer: The Cmax at 288 h was 11.6 ng/mL.

Question: And the half-life ([2]; 0.5 mg, 0.5 mg oral QD, Day 12, read-out: t1/2 (mean) (converted))?
Answer: The half-life was 2.75 ± 1 days.

Question: And the half-life ([2]; 0.5 mg, 0.5 mg oral QD, Day 12, read-out: t1/2 (median) (converted))?
Answer: Its half-life is 2.68 days.

Question: And the AUC(0-t) at 24 h ([2]; 1 mg, 1.0 mg oral QD, Day 1, read-out: AUC0-24 (mean))?
Answer: Its AUC(0-t) at 24 h is 118 ± 27 ng·h/mL.

Question: And the AUC(0-t) at 24 h ([2]; 1 mg, 1.0 mg oral QD, Day 1, read-out: AUC0-24 (median))?
Answer: Its AUC(0-t) at 24 h is 117 ng·h/mL.

Question: And the Cmax at 24 h ([2]; 1 mg, 1.0 mg oral QD, Day 1, read-out: Cmax (mean))?
Answer: The Cmax at 24 h was 8.5 ± 3 ng/mL.

Question: And the Cmax at 24 h ([2]; 1 mg, 1.0 mg oral QD, Day 1, read-out: Cmax (median))?
Answer: The Cmax at 24 h was 8.99 ng/mL.

Question: What about the AUC tau ([2]; 1 mg, 1.0 mg oral QD, Day 12, read-out: AUCtau (mean)) of the same compound?
Answer: Its AUC tau is 410 ± 115 ng·h/mL.

Question: What about the AUC tau ([2]; 1 mg, 1.0 mg oral QD, Day 12, read-out: AUCtau (median)) of the same compound?
Answer: Its AUC tau is 416 ng·h/mL.

Question: What about the Cmax at 288 h ([2]; 1 mg, 1.0 mg oral QD, Day 12, read-out: Cmax (mean)) of the same compound?
Answer: The Cmax at 288 h was 23.3 ± 5 ng/mL.

Question: What about the Cmax at 288 h ([2]; 1 mg, 1.0 mg oral QD, Day 12, read-out: Cmax (median)) of the same compound?
Answer: Its Cmax at 288 h is 22.6 ng/mL.

Question: And the half-life ([2]; 1 mg, 1.0 mg oral QD, Day 12, read-out: t1/2 (mean) (converted))?
Answer: Its half-life is 2.54 ± 1.21 days.
